{
  "source": "paper PMC13237374",
  "about": "(Communications Chemistry, 2026)",
  "format_in_all_cases": "physicochemical",
  "key": {"[1]": {"assay": "Aβ42 ThT aggregation assay", "procedure": "It was incubated at different concentrations in the presence of 20 μM ThT quiescently at 37 °C in 96-well half-area non-binding plates (Corning 3881), with 100 μL per well and five replicate wells per concentration. An aluminum film coating minimized evaporation. The fluorescence emission of ThT at 480 nm upon excitation at 440 nm was monitored using a FLUOstar Omega plate-reader (BMG Labtech GmbH, Germany) using a cycle time of 300 s with 40 flashes per reading and 0.2 s settling time per cycle."}, "[2]": {"assay": "Unseeded ThT aggregation kinetics of medin monomer", "settings": "for Primary nucleation order nc, fit result: unseeded assay fitted individually", "procedure": "After removing outliers manually, the resultant data from kinetic assays were normalized and analyzed using the online platform AmyloFit 2.0[46] made for global aggregation kinetic data-fitting. […] Half-times of unseeded aggregation assays were calculated in the AmyloFit 2.0 platform. For comparison of aggregation half-times of unseeded and low-seeded reactions, data were normalized and fitted using GraphPad Prism 2.0 with2 y=ymin+ymax−ymin/1+t1/2/t^c where y is the normalized ThT fluorescence and c is a constant. All data were fitted with the corresponding model using 50 basin hops to ensure convergence, and the fit with the least MSE was considered the best fit. Two models were used with the consideration of the presence or absence of seeds: secondary nucleation dominated[11] and fragmentation dominated mechanisms[45]. […] The average fibril length for pre-formed aggregate seeds was assumed to be 10,000 monomers[46]."}, "[3]": {"assay": "Low-seeded (1% seed:monomer) ThT aggregation assay of medin", "procedure": "After removing outliers manually, the resultant data from kinetic assays were normalized and analyzed using the online platform AmyloFit 2.0[46] made for global aggregation kinetic data-fitting. […] Half-times of unseeded aggregation assays were calculated in the AmyloFit 2.0 platform. For comparison of aggregation half-times of unseeded and low-seeded reactions, data were normalized and fitted using GraphPad Prism 2.0 with2 y=ymin+ymax−ymin/1+t1/2/t^c where y is the normalized ThT fluorescence and c is a constant. […]"}, "[4]": {"assay": "High-seeded (20–50% seed:total protein) ThT aggregation assay of medin", "settings": "for Elongation rate constant k+, fit result: high-seeded assay fitted individually", "protocol": "(§1) All assays were carried out at 37 °C in quiescent conditions at 100 µL sample volume per well in 96-well half-area non-binding plates (Corning 3881), with an aluminum film coating to minimize evaporation. […] ThT fluorescence emission at 480 nm, when excited at 440 nm, was monitored using a FLUOstar Omega plate-reader (BMG Labtech GmbH, Germany) using a cycle time of 180 s with 40 flashes per reading and 0.2 s settling time per cycle. The unseeded reactions were repeated thrice using three different batches of protein.\nAmyloid aggregation was monitored using 20 µM ThT in replicate wells. The overnight-grown fibrils were sonicated for 15 s at 50% duty cycle and 10% power using a microtip sonicator (Bandelin Sonopuls, Germany) to produce seeds for subsequent seeded aggregation assays.\n(§2) After removing outliers manually, the resultant data from kinetic assays were normalized and analyzed using the online platform AmyloFit 2.0[46] made for global aggregation kinetic data-fitting. All data representations have been produced in GraphPad Prism 2.0. Half-times of unseeded aggregation assays were calculated in the AmyloFit 2.0 platform. For comparison of aggregation half-times of unseeded and low-seeded reactions, data were normalized and fitted using GraphPad Prism 2.0 with2 y=ymin+ymax−ymin/1+t1/2/t^c where y is the normalized ThT fluorescence and c is a constant. All data were fitted with the corresponding model using 50 basin hops to ensure convergence, and the fit with the least MSE was considered the best fit. Two models were used with the consideration of the presence or absence of seeds: secondary nucleation dominated[11] and fragmentation dominated mechanisms. […] The average fibril length for pre-formed aggregate seeds was assumed to be 10,000 monomers."}, "[5]": {"assay": "Global kinetic fitting (AmyloFit 2.0) of unseeded, low-seeded and high-seeded medin ThT data", "protocol": "as §2"}, "[6]": {"assay": "Salt (NaCl) titration of medin ThT aggregation kinetics", "settings": "[Medin] 75 nM, N = 1, n = 5", "protocol": "as §1\nFor salt titration experiments, 20 mM NaPi 1 M NaCl 0.2 mM EDTA pH 7.4 was diluted to the final reaction mixtures at final NaCl concentrations of 0, 40, 150, and 500 mM before incubation in replicate wells of a non-binding plate and monitoring of aggregation kinetics as described above.\nas §2"}, "[7]": {"assay": "Critical concentration of medin aggregation from ThT amplitude", "settings": "half-maximal point of sigmoidal fit of ThT amplitude at 0–40 nM monomer; 20 µM ThT, pH 7.4, 37 °C, quiescent"}, "[8]": {"assay": "Dynamic light scattering (DLS) of medin", "protocol": "Samples were withdrawn at different time intervals, and the particle size distribution was monitored at 20 °C in a Malvern Zetasizer Nano instrument (Malvern Instruments Limited, United Kingdom) at 70 µL volume (N = 3, n = 3). Two outliers were removed manually before data analysis."}, "[9]": {"settings": "unseeded assays, N = 3, fragmentation dominated, no seed"}, "[10]": {"settings": "unseeded assays, N = 3, secondary nucleation dominated, no seed"}, "[11]": {"settings": "secondary nucleation dominated model"}, "[12]": {"settings": "global data analysis, fragmentation dominated"}, "[13]": {"settings": "global data analysis, secondary nucleation dominated"}},
  "data": [
    {"substance": "Aβ42: human amyloid-β 42 peptide, recombinantly produced, comparator amyloid", "values": [
      {"measurement": "concentrations at which no aggregation was observed within 24 hours", "setting": "[1]; 20 mM NaPi 0.2 mM EDTA pH 7.4, 37 °C, quiescent, 20 µM ThT", "result": "below 117 nM"},
      {"measurement": "aggregation half-time t1/2", "setting": "[1]; […] Aβ42, pH 7.4, 37 °C", "result": 1.9, "unit": "h"}
    ]},
    {"substance": "medin: 50-residue peptide cleaved from lactadherin, forms aortic medial amyloid; produced recombinantly in E. coli", "values": [
      {"measurement": "aggregation of 10 nM medin monomer", "setting": "[2]; 10 nM monomer, over 16 h, ThT", "result": "no aggregation"},
      {"measurement": "lowest concentration at which amyloid fibrils form spontaneously", "setting": "[2]; physiological pH and temperature, quiescent solution", "result": 25, "unit": "nM"},
      {"measurement": "Primary nucleation order nc, fit result", "setting": "[2]; fragmentation dominated, no seed", "result": "~ 1"},
      {"measurement": "Primary nucleation order nc, fit result", "setting": "[2]; secondary nucleation dominated, no seed", "result": "~ 1"},
      {"measurement": "primary nucleation reaction order nc", "setting": "[2]; unseeded assay, secondary nucleation- or fragmentation-dominated spontaneous aggregation model", "result": "~ 1"},
      {"measurement": "Combined rate constant k+kn, average value", "setting": "[2]; [9]", "result": "7.3 M-1s-2"},
      {"measurement": "Combined rate constant k+k−, average value", "setting": "[2]; [9]", "result": "1.7 M-1s-2"},
      {"measurement": "Primary nucleation reaction order nc, average value", "setting": "[2]; [9]", "result": 1.4},
      {"measurement": "Combined rate constant k+k2, average value", "setting": "[2]; [10]", "result": "22.3 M-1s-2"},
      {"measurement": "Primary nucleation reaction order nc, average value", "setting": "[2]; [10]", "result": "~ 1"},
      {"measurement": "Secondary nucleation reaction order n2, average value", "setting": "[2]; [10]", "result": "~ 0"},
      {"measurement": "Combined rate constant k+kn, average value", "setting": "[2]; unseeded assays, biological replicates N = 3 (different batches), secondary nucleation dominated, no seed", "result": "0.1 M-1s-2"},
      {"measurement": "rate constant of the monomer-independent secondary pathway (k2 or k−)", "setting": "[3]; 50–[…] monomer, pH 7.4, 37 °C, 20 µM ThT", "result": "4e-08", "unit": "s⁻¹"},
      {"measurement": "secondary nucleation reaction order n2", "setting": "[3]; [11]", "result": "~ 0"},
      {"measurement": "elongation rate constant", "setting": "[4]; as printed in the Introduction, physiological pH and temperature in vitro", "result": "~ 10^7 s^−1"},
      {"measurement": "Elongation rate constant k+, fit result", "setting": "[4]; fragmentation dominated model", "result": "5.4e+07", "unit": "M⁻¹ s⁻¹"},
      {"measurement": "Elongation rate constant k+, fit result", "setting": "[4]; [11]", "result": "5.34e+07", "unit": "M⁻¹ s⁻¹"},
      {"measurement": "elongation rate constant k+", "setting": "[4]; high-seeded: 187.5–500 nM monomer + 187.5 nM pre-formed fibrils (20–50% seed:total protein), pH 7.4, 37 °C, quiescent, 20 µM ThT, AmyloFit fit of first phase", "result": "5e+07", "unit": "M⁻¹ s⁻¹"},
      {"measurement": "primary nucleation reaction order nc", "setting": "[5]; global analysis of all assays", "result": "~1"},
      {"measurement": "primary nucleation rate constant kn", "setting": "[5]; global analysis of unseeded, low-seeded and high-seeded data, saturated secondary nucleation (n2 = 0) or fragmentation model", "result": "1e-08", "unit": "s⁻¹"},
      {"measurement": "Elongation rate constant k+, fit result", "setting": "[5]; [12]", "result": "9.53e+06", "unit": "M⁻¹ s⁻¹"},
      {"measurement": "Primary nucleation order nc, fit result", "setting": "[5]; [12]", "result": "~ 1"},
      {"measurement": "Primary nucleation rate constant kn, fit result", "setting": "[5]; [12]", "result": "1.15e-08", "unit": "s⁻¹"},
      {"measurement": "Secondary pathway rate constant k−, fit result", "setting": "[5]; [12]", "result": "3.14e-07", "unit": "s⁻¹"},
      {"measurement": "Elongation rate constant k+, fit result", "setting": "[5]; [13]", "result": "9.46e+06", "unit": "M⁻¹ s⁻¹"},
      {"measurement": "Primary nucleation order nc, fit result", "setting": "[5]; [13]", "result": "~ 1"},
      {"measurement": "Primary nucleation rate constant kn, fit result", "setting": "[5]; [13]", "result": "1.13e-08", "unit": "s⁻¹"},
      {"measurement": "Secondary nucleation order n2, fit result", "setting": "[5]; [13]", "result": "~ 0"},
      {"measurement": "Secondary pathway rate constant k2, fit result", "setting": "[5]; [13]", "result": "3.23e-07", "unit": "s⁻¹"},
      {"measurement": "Mean t1/2", "setting": "[6]; [NaCl] 0 mM", "result": 3.2, "unit": "h"},
      {"measurement": "Mean t1/2", "setting": "[6]; [NaCl] 40 mM", "result": 2.4, "unit": "h"},
      {"measurement": "Mean t1/2", "setting": "[6]; [NaCl] 150 mM", "result": 2.5, "unit": "h"},
      {"measurement": "Mean t1/2", "setting": "[6]; [NaCl] 500 mM", "result": 2.4, "unit": "h"},
      {"measurement": "critical concentration of medin aggregation", "setting": "[7]", "result": "~ 14 nM"},
      {"measurement": "hydrodynamic diameter of aggregates", "setting": "[8]; 10 µM medin after quiescent incubation at pH 7.4 and 37 °C, DLS", "result": "200–3200 nm"},
      {"measurement": "incubation time until first traces of higher molecular weight species", "setting": "[8]; 10 µM medin monomer on ice, DLS", "result": "at least 1.5 hours"},
      {"measurement": "hydrodynamic diameters of monomeric and initial oligomeric species", "setting": "[8]; 10 µM medin, DLS at 20 °C, N = 3, n = 3", "result": "0.4–6 nm"},
      {"measurement": "mean hydrodynamic diameter", "setting": "[8]; purely monomeric medin, 10 µM in aggregation assay buffer, freshly eluted", "result": 0.67, "unit": "nm"}
    ]}
  ]
}
